The subject of series [1] is fructosamine oxidase. Nature of the series: fructosamine oxidase inhibition assay in human sera (ferricytochrome c, g-BSA substrate). The format is biochemical. An excerpt:
The effectiveness of the inhibitor was expressed not by an equilibrium constant but by a velocity constant (K) which determined the fraction of the enzyme inhibited in a given period of time by a certain concentration of inhibitor.

Series [2] relates to streptozocin-diabetic rat (STZ rat). Nature of the series: Second preclinical study: intraperitoneal streptozotocin diabetic rat, 6 months. The arrangement: Mean ± SEM weight gain: unit not given here. The format is in vivo, Wistar rats. The settings on record: for Mean ± SEM weight gain: beginning to end of the 24 week period; for effect on weight gain (in words): compared with untreated STZ diabetic control rats, 6-month period; for % with cataract / No with cataract: gross cataract formation; for % with cataract / No with cataract / No with severe fibrosis: week 24; for No with severe fibrosis: gross myocardial fibrosis; for mortality rate: rat, in vivo.

Series [3] concerns fructosamine oxidase. Nature of the series: fructosamine oxidase inhibition assay in human sera (ferricytochrome c, g-BSA substrate). Format: biochemical. The conditions noted are these: read-out: IC50 (concentration of inhibitor causing 50% inactivation of the enzyme).
The conditions of series [4]: cited from earlier work; for bioavailability: oral administration.
Series [5] has as its system streptozocin-diabetic rat (STZ rat). Nature of the series: First preclinical study: intravenous streptozotocin diabetic rat, 8 months. The format is in vivo, Wistar rats. The settings on record: for Survivors at week 32 / mean weight change amongst surviving study animals: rat, in vivo; for Glucose: week 4, mean±SD; for Glucose / HbA1c: 50 mg/L in drinking water; for HbA1c: week 32, mean±SD.

The conditions of series [6]: cited from earlier work.
For series [7] the following is noted: beagle dogs, cited from earlier work.
For series [8] the following is noted: solutions exposed to light at room temperature, 24 hours; cited from earlier work.
The mark [9] stands for this setting: fresh human sera, 0-1,000 μM inhibitor, 0.05 M TES buffer pH 7.4, 37° C., 5 minutes.

Each structure is given as a SMILES string. Where two headings read alike, the source gives them in different places. Marks after values point to notes of the source that are not given here.

`C[C@H](CS)C(=O)N1CCC[C@H]1C(=O)O` [captopril]: in the series with fructosamine oxidase [1] (1.0 μM inhibitor), the “K (velocity/rate constant)” value came out at 0.0259 min⁻¹. Besides, in series [2] (Week 4, mean±SD), the HbA1c was 8.5 ± 0.9. Besides, in series [2] (Week 12, mean±SD), the HbA1c was 9.2 ± 1.1. In series [2] (Week 24, mean±SD), this compound displayed a HbA1c of 9.4 ± 01.3. In series [2], the “Mean ± SEM weight gain” value worked out at 60.7 ± 20.7, the “effect on weight gain (in words)” value is listed as “ineffective”, the “% with cataract” value came to 25% and the No with cataract was found to be 2. In addition, in series [2], the “No with severe fibrosis” value turned out to be 6 and the mortality rate is reported as 0%. The IC50 with fructosamine oxidase [3] (pH 7.4) turned out to be 1.78 µM. In addition, the “binding in vivo to albumin and other plasma proteins” value in series [4] (in vivo) is given as “almost completely bound”. Further, in series [4], the bioavailability result is recorded as “approximately 65%”.

For `NC(CO)C(=O)NNCc1ccc(O)c(O)c1O` (centres unmarked) [benserazide], in the series on fructosamine oxidase [1] (10.0 μM inhibitor (*)), the “K (velocity/rate constant)” value was 0.0095* min^−1. For the same compound, the IC50 with fructosamine oxidase [3] (setting [9]) was 13.6 µM.

`NNC(=O)C(=O)NN` [oxalic dyhydrazide]: the “K (velocity/rate constant)” value in the series on fructosamine oxidase [1] (1.0 μM inhibitor) turned out to be 0.0542 min⁻¹. In the series on fructosamine oxidase [3] (setting [9]), the IC50 was 1.59 µM.

On to `N/N=C(\N)NN` [diaminoguanidine], for which the “K (velocity/rate constant)” value with fructosamine oxidase [1] was 0.1340 min⁻¹. Moreover, in the series on fructosamine oxidase [3] (pH 7.4), the IC50 turned out to be 0.36 µM.

On to `CCOC(=O)[C@H](CCc1ccccc1)N[C@@H](C)C(=O)N1CCC[C@H]1C(=O)O` [enalapril], for which the “K (velocity/rate constant)” value in the series with fructosamine oxidase [1] (1.0 μM inhibitor) came to 0.0326 min⁻¹. The IC50 in the series with fructosamine oxidase [3] (setting [9]) came out at 3.95 µM.

As to `CC(=O)N[C@H](C(=O)O)C(C)(C)S` [acetylpenicillamine], in the series with fructosamine oxidase [1] (1.0 μM inhibitor), the “K (velocity/rate constant)” value was 0.0811 min⁻¹. For the same compound, in the series with fructosamine oxidase [3] (setting [9]), the IC50 was 1.06 µM.

As to `NNC(N)=O` [semicarbazide], the “K (velocity/rate constant)” value in the series with fructosamine oxidase [1] is given as 0.0276* min^−1. The IC50 in the series with fructosamine oxidase [3] (pH 7.4) stood at 45 µM.

Consider `O=C(O)CN(CCN(CC(=O)O)CC(=O)O)CC(=O)O` [EDTA, ethylenediamine tetraacetic acid], for which the “K (velocity/rate constant)” value in the series on fructosamine oxidase [1] (10.0 μM inhibitor (*)) is 0.0755* min^−1. In series [5], the “Survivors at week 32” value was 5, the “mean weight change amongst surviving study animals” value is listed as “+1.2%”, the Glucose came out at 39.0 ± 6.04 mmol/L and the HbA1c stood at 9.30 ± 0.63%. Also, in the series on fructosamine oxidase [3] (pH 7.4), the IC50 is 15.7 µM. Besides, the bioavailability entry in series [4] is “less than 5%”.

Regarding `NNc1nncc2ccccc12` [hydralazine], in series [5], the “Survivors at week 32” value is given as 6, the “mean weight change amongst surviving study animals” value is −11.0%, the Glucose is recorded as 35.7 ± 9.5 mmol/L and the HbA1c amounted to 8.65 ± 1.18%. In addition, in series [6] (man, oral administration), the bioavailability is 26-55%. The “drug excreted in the urine unchanged” value in series [6] (over 24 hours after oral administration) is recorded as 2.0-3.6%.

In the case of `N=C(N)NN` [aminoguanidine], in the series on fructosamine oxidase [1] (10.0 μM inhibitor (*)), the “K (velocity/rate constant)” value is 0.0067* min^−1. Moreover, in the series on fructosamine oxidase [3] (setting [9]), the IC50 is 231 µM.

Regarding `CC(=O)N[C@@H](CS)C(=O)O` [acetylcysteine], the “K (velocity/rate constant)” value with fructosamine oxidase [1] (1.0 μM inhibitor) is 0.1677 min⁻¹. Also, in series [5], the “Survivors at week 32” value came out at 7, the “mean weight change amongst surviving study animals” value is recorded as −8.1%, the Glucose is reported as 37.8 ± 5.2 mmol/L and the HbA1c is reported as 9.47 ± 1.23%. For the same compound, the IC50 in the series with fructosamine oxidase [3] (pH 7.4) worked out at 0.83 µM.

Take `C[C@@](Cc1ccc(O)c(O)c1)(NN)C(=O)O` [carbidopa]: the “K (velocity/rate constant)” value in the series with fructosamine oxidase [1] (1.0 μM inhibitor) turned out to be 0.1496 min⁻¹. Besides, the HbA1c in series [2] (Week 4, mean±SD) was determined as 9.0 ± 1.0. Also, the HbA1c in series [2] (Week 12, mean±SD) is 9.6 ± 0.7. This compound displayed a HbA1c in series [2] (Week 24, mean±SD) of 9.9 ± 1.1. Further, in series [2], the “Mean ± SEM weight gain” value was 33.7 ± 20.4, the “effect on weight gain (in words)” value is recorded as “ineffective”, the “% with cataract” value came out at 25% and the No with cataract is listed as 2. In addition, in series [2], the “No with severe fibrosis” value is 2 and the mortality rate turned out to be 0%. Also, the IC50 in the series on fructosamine oxidase [3] (pH 7.4) is 0.5 µM. In addition, in series [7] (oral), the absolute bioavailability is reported as 88%. In series [7], the biological half-life was 5 hours and the oral absorption result was “almost complete”. Also, in series [8], the oxidative degradation is listed as 50%.

Turning to `NCCCC[C@H](N[C@@H](CCc1ccccc1)C(=O)O)C(=O)N1CCC[C@H]1C(=O)O` [lisinopril], in the series on fructosamine oxidase [1] (1.0 μM inhibitor), the “K (velocity/rate constant)” value was determined as 0.0174 min⁻¹. In addition, the IC50 in the series with fructosamine oxidase [3] (setting [9]) is 217 µM.

Consider `NNc1ccccc1` [phenylhydrazine], for which, in the series on fructosamine oxidase [1], the “K (velocity/rate constant)” value amounted to 0.1160 min⁻¹. The IC50 with fructosamine oxidase [3] (pH 7.4) was determined as 0.81 µM.

As to `c1cnc2c(c1)ccc1cccnc12` [o-phenathroline], in the series with fructosamine oxidase [1] (1.0 μM inhibitor), the “K (velocity/rate constant)” value came out at 0.0385 min⁻¹. The IC50 in the series on fructosamine oxidase [3] (setting [9]) was determined as 4.25 µM.

Turning to `CC(=O)N(O)CCCCCNC(=O)CCC(=O)N(O)CCCCCNC(=O)CCC(=O)N(O)CCCCCN` [desferrioxamine], the “K (velocity/rate constant)” value in the series on fructosamine oxidase [1] (10.0 μM inhibitor (*)) is reported as 0.0109* min^−1. Further, in the series with fructosamine oxidase [3] (pH 7.4), the IC50 stood at 40.6 µM.

Consider `N[C@@H](Cc1c[nH]cn1)C(=O)O` [histidine], for which, in the series on fructosamine oxidase [1] (1.0 μM inhibitor), the “K (velocity/rate constant)” value was 0.0554 min⁻¹. In addition, the IC50 in the series with fructosamine oxidase [3] (setting [9]) was determined as 2.29 µM.

(Values after patent US7459446B2, “Treatment of diabetes with copper binding compounds” (priority 1998, dated 2008).)
